Literature values in patent US8618066B1 (priority 2003, dated 2013).
“Also recorded” adds a separate entry of the source.

system: Gram+ & Gram− bacteria, fungi, virus, mammalian/cancer cells; conditions: cited from earlier work

Substance	Activity
MUC7 20- Mer: peptide, source Human (LAHQKPFIRKSYKCLHKRCR; MUC7 20-Mer; listed as Homo sapiens)	Gram+ & Gram−, Fungi
Melanotropin alpha (Alpha-MSH): peptide, source Bovine (SYSMEHFRWGKPV; Melanotropin alpha (Alpha-MSH); listed as Bos taurus)	Gram+, Fungi
NP-3A defensin: peptide, source Rabbit (GICACRRRFCPNSERFSGYCRVNGARYVRCCSRR; NP-3A defensin; listed as Oryctolagus cuniculus)	Gram+ & Gram−, Virus, Fungi
Neutrophil defensin 1 (HANP-1): peptide, source Golden hamster (VTCFCRRRGCASRERHIGYCRFGNTIYRLCCRR; Neutrophil defensin 1 (HANP-1); listed as Mesocricetus auratus)	Gram+, Fungi
Neutrophil defensin 2 (RMAD-2): peptide, source Rhesus macaque (ACYCRIPACLAGERRYGTCFYMGRVWAFCC; neutrophil defensin 2 (RMAD-2); listed as Macaca mulatta)	Gram+ & Gram−, Fungi
Neutrophil defensin 3 (HANP-3): peptide, source Golden hamster (VTCFCRRRGCASRERLIGYCRFGNTIYGLCCRR; Neutrophil defensin 3 (HANP-3); listed as Mesocricetus auratus)	Gram+, Fungi
Nigrocin 1: peptide, source Rana nigromaculata (GLLDSIKGMAISAGKGALQNLLKVASCKLDKTC; Nigrocin 1; listed as Rana nigromaculata)	Gram+ & Gram−, Fungi
Nigrocin 2: peptide, source Rana nigromaculata (GLLSKVLGVGKKVLCGVSGLC; Nigrocin 2; listed as Rana nigromaculata)	Gram+ & Gram−, Fungi
P-18: antimicrobial peptide, Table 1 (KWKLFKKIPKFLHLAKKF; listed as Penaeus vannamei)	Gram+ & Gram−, Fungi, Cancer
PN-AMP: peptide, source Japenese morning glory	Gram+, Fungi
PW2: peptide, source Synthetic (HPLKQYWWRPSI; Synthetic PW2)	Fungi
Penaeidin-1: peptide, source Penoeid shrimp (YRGGYTGPIPRPPPIGRPPLRLVVCACYRLSVSDARNCCIKFGSCCHLVK; Penaeidin-1; listed as Penaeus vannamei)	Gram+ & Gram−, Fungi
Penaeidin-4a: peptide, source Penoeid shrimp (HSSGYTRPLPKPSRPIFIRPIGCDVCYGIPSSTARLCCFRYGDCCHR; Penaeidin-4a; listed as Penaeus vannamei)	Gram+ & Gram−, Fungi
Peptide PGQ: peptide, source African clawed frog (GVLSNVIGYLKKLGTGALNAVLKQ; Peptide PGQ; listed as Xenopus laevis)	Gram+ & Gram−, Fungi

same assay, conditions: classes of organisms/cells the peptide is active against; cited from earlier work

Substance	Activity
Melittin B	Gram+ & Gram−, Fungi,; also recorded: Mammalian cells
Opistoporin 1: peptide, source African yellow leg scorpion (GKVWDWIKSTAKKLWNSEPVKELKNTALNAAKNLVAEKIGATPS; Opistoporin 1; listed as Opistophthalmus carinatus)	Gram+ & Gram−, Fungi,; also recorded: Mammalian cells
Opistoporin 2: peptide, source African yellow leg scorpion (GKVWDWIKSTAKKLWNSEPVKELKNTALNAAKNFVAEKIGATPS; Opistoporin 2; listed as Opistophthalmus carinatus)	Gram+ & Gram−, Fungi,; also recorded: Mammalian cells
Parabutoporin: peptide, source Scorpion (FKLGSFLKKAWKSKLAKKLRAKGKEMLKDYAKGLLEGGSEEVPGQ; Parabutoporin; listed as Parabuthus schlechteri)	Gram+ & Gram−, Fungi,; also recorded: Mammalian cells
